According to ChEMBL document CHEMBL1201862, “PubChem BioAssay data set” (2004):
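Assay format: 96-well plates, 48-hour exposure. GI50 marks 50% less growth.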 The source made the active and inactive calls. Cut-off read from the data, not from the text of the source: active = GI50 up to about 1.1 µM and inactive = higher.

Key:
Test in all cases: NCI-60 cell line screen, 48 h
CAKI-1 = test system: CAKI-1
COLO 205 = test system: COLO 205
DU-145 = test system: DU-145
HCC 2998 = test system: HCC 2998
HOP-62 = test system: HOP-62
HT-29 = test system: HT-29
Hs-578T = test system: Hs-578T
K562 = test system: K562
MCF7 = test system: MCF7
MDA-MB-231 = test system: MDA-MB-231
MDA-N = test system: MDA-N
NCI/ADR-RES = test system: NCI/ADR-RES
OVCAR-3 = test system: OVCAR-3
OVCAR-8 = test system: OVCAR-8
PC-3 = test system: PC-3
RPMI-8226 = test system: RPMI-8226
RXF 393 = test system: RXF 393
SF-268 = test system: SF-268
SF-295 = test system: SF-295
TK-10 = test system: TK-10

Measured: GI50

O=C(CCc1cc(O)cc(O)c1)NCCc1cc(O)cc(OCc2ccccc2)c1
inactive: CAKI-1 > 100 µM | COLO 205 48.3 µM | DU-145 33.1 µM | HCC 2998 20.5 µM | HOP-62 43.6 µM | HT-29 29 µM | Hs-578T 32.1 µM | K562 36.1 µM | MCF7 32.6 µM | MDA-MB-231 29.8 µM | MDA-N 27.5 µM | NCI/ADR-RES > 100 µM | OVCAR-3 35.7 µM | OVCAR-8 34.3 µM | PC-3 37.8 µM | RPMI-8226 35.8 µM | RXF 393 37 µM | SF-268 29.6 µM | SF-295 32.9 µM | TK-10 > 100 µM

CCOC(=O)c1c(O)nc(O)c(CC)c1C
inactive: CAKI-1 > 100 µM | COLO 205 > 100 µM | DU-145 > 100 µM | HCC 2998 > 100 µM | HOP-62 > 100 µM | HT-29 > 100 µM | Hs-578T > 100 µM | K562 > 100 µM | MCF7 > 100 µM | MDA-MB-231 > 100 µM | MDA-N > 100 µM | NCI/ADR-RES > 100 µM | OVCAR-3 > 100 µM | OVCAR-8 > 100 µM | PC-3 > 100 µM | RPMI-8226 > 100 µM | RXF 393 > 100 µM | SF-268 > 100 µM | SF-295 > 100 µM | TK-10 > 100 µM

COc1ccc(CC2C3=C(CCN2C(=O)C2CCC2)CC2(CC3)OCCO2)cc1O (stereo not given)
inactive: CAKI-1 36.6 µM | COLO 205 22.8 µM | DU-145 26.5 µM | HCC 2998 28.2 µM | HOP-62 33.6 µM | HT-29 29 µM | Hs-578T 30.6 µM | K562 22.6 µM | MCF7 28.6 µM | MDA-MB-231 40.8 µM | MDA-N 12.1 µM | NCI/ADR-RES 16.3 µM | OVCAR-3 18 µM | OVCAR-8 58.5 µM | PC-3 31.3 µM | RPMI-8226 36.6 µM | RXF 393 15.7 µM | SF-268 35.2 µM | SF-295 20.5 µM | TK-10 30.7 µM

Clc1ccc2c(NCCCCCCNc3ccnc4cc(Cl)ccc34)ccnc2c1
inactive: CAKI-1 9.04 µM | COLO 205 1.82 µM | DU-145 6.19 µM | HCC 2998 1.67 µM | HOP-62 4.72 µM | HT-29 1.99 µM | Hs-578T 3.27 µM | K562 1.72 µM | MCF7 2.51 µM | MDA-MB-231 2.22 µM | MDA-N 2.46 µM | NCI/ADR-RES 4.56 µM | OVCAR-3 1.84 µM | OVCAR-8 2.05 µM | PC-3 3.65 µM | RPMI-8226 2.13 µM | RXF 393 3.01 µM | SF-268 5.35 µM | SF-295 2.11 µM | TK-10 6.78 µM

Cc1ccc(O)c(C2=CC3=NNC(=O)C3C(c3cccc(Br)c3)C2)c1 (stereo not given)
inactive: CAKI-1 23 µM | COLO 205 12.3 µM | DU-145 29.2 µM | HCC 2998 14.7 µM | HOP-62 55 µM | HT-29 23.8 µM | Hs-578T 27.1 µM | K562 25.8 µM | MCF7 11.4 µM | MDA-MB-231 20 µM | MDA-N 23.7 µM | NCI/ADR-RES 34.6 µM | OVCAR-3 22.3 µM | OVCAR-8 20.8 µM | PC-3 34.3 µM | RPMI-8226 22.1 µM | RXF 393 14.2 µM | SF-268 23 µM | SF-295 18.8 µM | TK-10 18.6 µM

COc1cc2c(c3oc4c(O)cccc4c(=O)c13)CC(C(C)(O)CO)O2 (stereo not given)
inactive: CAKI-1 39.9 µM | COLO 205 > 100 µM | DU-145 > 100 µM | HCC 2998 > 100 µM | HOP-62 > 100 µM | HT-29 43.8 µM | Hs-578T 44.3 µM | K562 55.6 µM | MCF7 19.5 µM | MDA-MB-231 63.7 µM | MDA-N 94.8 µM | NCI/ADR-RES > 100 µM | OVCAR-3 > 100 µM | OVCAR-8 53.1 µM | PC-3 > 100 µM | RPMI-8226 > 100 µM | RXF 393 7.74 µM | SF-268 46.8 µM | SF-295 > 100 µM | TK-10 > 100 µM

COc1ccccc1CCN1CCN(CCCc2ccccc2)CC1
inactive: CAKI-1 91 µM | COLO 205 28.5 µM | DU-145 > 100 µM | HCC 2998 47.3 µM | HOP-62 > 100 µM | HT-29 28.8 µM | Hs-578T > 100 µM | K562 34.5 µM | MCF7 79.6 µM | MDA-MB-231 > 100 µM | MDA-N 58.9 µM | NCI/ADR-RES > 100 µM | OVCAR-3 > 100 µM | OVCAR-8 > 100 µM | PC-3 > 100 µM | RPMI-8226 39.4 µM | RXF 393 59.8 µM | SF-268 > 100 µM | SF-295 52.5 µM | TK-10 75.5 µM

c1ccc([P+](Cc2ccc(C[P+](c3ccccc3)(c3ccccc3)c3ccccc3)s2)(c2ccccc2)c2ccccc2)cc1
inactive: CAKI-1 > 100 µM | COLO 205 > 100 µM | DU-145 > 100 µM | HCC 2998 > 100 µM | HOP-62 > 100 µM | HT-29 > 100 µM | Hs-578T > 100 µM | K562 > 100 µM | MCF7 > 100 µM | MDA-MB-231 > 100 µM | MDA-N > 100 µM | NCI/ADR-RES > 100 µM | OVCAR-3 > 100 µM | OVCAR-8 > 100 µM | PC-3 > 100 µM | RPMI-8226 > 100 µM | RXF 393 > 100 µM | SF-268 > 100 µM | SF-295 > 100 µM | TK-10 > 100 µM

O=C(/C=C/c1ccc(O)c(O)c1)OCCCOC(=O)/C=C/c1ccc(O)c(O)c1
inactive: CAKI-1 34.4 µM | COLO 205 28.9 µM | DU-145 34.8 µM | HCC 2998 38.9 µM | HOP-62 11.7 µM | HT-29 22.3 µM | Hs-578T 49.5 µM | K562 22.3 µM | MCF7 30.6 µM | MDA-MB-231 62.1 µM | MDA-N 17.5 µM | NCI/ADR-RES 28.4 µM | OVCAR-3 10.8 µM | OVCAR-8 22.8 µM | PC-3 30.5 µM | RPMI-8226 17.4 µM | RXF 393 26.8 µM | SF-268 23.9 µM | SF-295 18 µM | TK-10 29.3 µM

Cc1cc2ncn(C3CCCCO3)c2cc1C (stereo not given)
inactive: CAKI-1 > 100 µM | COLO 205 > 100 µM | DU-145 > 100 µM | HCC 2998 > 100 µM | HOP-62 > 100 µM | HT-29 > 100 µM | Hs-578T > 100 µM | K562 > 100 µM | MCF7 > 100 µM | MDA-MB-231 > 100 µM | MDA-N > 100 µM | NCI/ADR-RES > 100 µM | OVCAR-3 > 100 µM | OVCAR-8 > 100 µM | PC-3 > 100 µM | RPMI-8226 > 100 µM | RXF 393 > 100 µM | SF-268 > 100 µM | SF-295 > 100 µM | TK-10 > 100 µM

CCOC(=O)c1ccc2nc3n(c2c1)C(c1c(F)cccc1F)SC3 (stereo not given)
inactive: CAKI-1 > 100 µM | COLO 205 > 100 µM | DU-145 > 100 µM | HCC 2998 > 100 µM | HOP-62 57.3 µM | HT-29 > 100 µM | Hs-578T > 100 µM | K562 > 100 µM | MCF7 56.8 µM | MDA-MB-231 > 100 µM | MDA-N > 100 µM | NCI/ADR-RES > 100 µM | OVCAR-3 67.1 µM | OVCAR-8 > 100 µM | PC-3 72.1 µM | RPMI-8226 > 100 µM | RXF 393 24.9 µM | SF-268 > 100 µM | SF-295 > 100 µM | TK-10 > 100 µM

NC1CCN(c2nc3ccccc3c3c2CCCC3)CC1
inactive: CAKI-1 5.77 µM | COLO 205 1.67 µM | DU-145 11.9 µM | HCC 2998 1.73 µM | HOP-62 15.1 µM | HT-29 2.11 µM | Hs-578T 20.5 µM | K562 1.62 µM | MCF7 3.07 µM | MDA-MB-231 3.43 µM | MDA-N 2.97 µM | NCI/ADR-RES 12.2 µM | OVCAR-3 11.9 µM | OVCAR-8 13.2 µM | PC-3 7.89 µM | RPMI-8226 1.8 µM | RXF 393 2.33 µM | SF-268 12.5 µM | SF-295 10.1 µM | TK-10 10.7 µM

CCCCCCCCC(=O)NCCN(CCN)C(=O)CCCCCCCC
inactive: CAKI-1 17.5 µM | COLO 205 3.29 µM | DU-145 13.6 µM | HCC 2998 6.14 µM | HOP-62 15.3 µM | HT-29 3.3 µM | Hs-578T 8.38 µM | K562 2.18 µM | MCF7 4.75 µM | MDA-MB-231 3.31 µM | MDA-N 5.6 µM | NCI/ADR-RES 13.1 µM | OVCAR-3 15.2 µM | OVCAR-8 10.7 µM | PC-3 10.7 µM | RPMI-8226 2.49 µM | RXF 393 13.5 µM | SF-268 6.87 µM | SF-295 4.99 µM | TK-10 14.6 µM

O=C1OC([C@H](O)c2cccnc2)c2ccccc21 (stereo not given in full)
inactive: CAKI-1 > 10 µM | COLO 205 > 10 µM | DU-145 > 10 µM | HCC 2998 > 10 µM | HOP-62 > 10 µM | HT-29 > 10 µM | Hs-578T > 10 µM | K562 > 10 µM | MCF7 > 10 µM | MDA-MB-231 > 10 µM | MDA-N > 10 µM | NCI/ADR-RES > 10 µM | OVCAR-3 > 10 µM | OVCAR-8 > 10 µM | PC-3 > 10 µM | RPMI-8226 > 10 µM | RXF 393 > 10 µM | SF-268 > 10 µM | SF-295 > 10 µM | TK-10 > 10 µM
